The record followed here is PubChem BioAssay (NCI).

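Five concentrations, 48 hours, 96-well plates. The concentration for 50% growth inhibition is given as GI50. TGI marks complete inhibition of growth.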 Where a SMILES comes first, the peptide text is derived from it. [ ]: non-standard residue; d: D form. Phe(4-Cl) = N[CH](Cc1ccc(Cl)cc1)C(=O)O

Holding throughout (assay): inhibition of tumour cell growth, NCI panel, 48 h
The test system of assay [1] is HCT-116 colon.
Assay [2] concerns SF-295 CNS.
The test system of assay [3] is OVCAR-5 ovarian.
The subject of assay [4] is HL-60(TB) leukemia.
The subject of assay [5] is OVCAR-4 ovarian.
Assay [6] concerns NCI-H460 lung.
In assay [7] the test system is OVCAR-8 ovarian.
In assay [8] the test system is HCC-2998 colon.

As to `COc1c2c(cc3nc4ccccc4nc13)CCC(C(C)(C)O)C2` (stereo not given), the TGI is above 100 µM in assay [1]; above 100 µM in assay [2]; above 100 µM in assay [3]; 76 µM in assay [4]; above 100 µM in assay [5]; above 100 µM in assay [6]. Further, the TGI in assay [7] and in assay [8] was above 100 µM each time.

Take `COc1cc(OC(=O)c2c(O)cc(O)c(O)c2C)cc(C)c1C(=O)Oc1cc(C)c(C(=O)O)c(O)c1`: the TGI in assay [1], in assay [2], in assay [3], in assay [4], in assay [5] and in assay [6] was above 100 µM each time. In addition, the TGI in assay [7] and in assay [8] was above 100 µM in each case.

As for `Nc1ccc(/C=C/c2ccnc3ccccc23)cc1`, the TGI in assay [1] is 42.4 µM; in assay [2] it was 46.1 µM; in assay [3] it was 60.9 µM; in assay [4], 23.8 µM; in assay [5], above 100 µM; in assay [6], 49.1 µM. Moreover, the results for the TGI in assay [7] and in assay [8] were 88.2 µM and 57.7 µM, respectively.

Consider `CC(C)N(C(=O)C12CC3CC(CC(C3)C1)C2)C(C)C`, for which the TGI in assay [1], in assay [2], in assay [3], in assay [4], in assay [5] and in assay [6] was above 50 µM in each case. Further, the TGI in assay [7] and in assay [8] was above 50 µM in each case.

With `CC(=O)[CH-]C(=O)c1ccccc1.CC(=O)[CH-]C(=O)c1ccccc1.O=C([O-])c1ccc([O-])cc1.O=C([O-])c1ccc([O-])cc1.[Ti+4]`, the GI50 in assay [1] is 41.4 µM; in assay [2], 41.6 µM; in assay [3], 74.5 µM; in assay [4] it was 20.5 µM; in assay [5], 57.1 µM; in assay [6], 44.2 µM. Besides, the GI50 is 46.5 µM in assay [7] and 46.3 µM in assay [8]. For the same compound, the TGI in assay [1] is above 100 µM; in assay [2], above 100 µM; in assay [3] it was above 100 µM; in assay [4] it was 67.6 µM; in assay [5], above 100 µM; in assay [6] it was above 100 µM. Besides, the TGI in assay [7] and in assay [8] was above 100 µM each time.

Turning to `C=CCCCCCCCCC(=O)NS(=O)(=O)c1ccccc1`, the TGI in assay [1], in assay [2], in assay [3], in assay [4], in assay [5] and in assay [6] was above 100 µM throughout. In addition, the TGI in assay [7] and in assay [8] was above 100 µM each time.

Regarding `N#Cc1nc(C2OC(COC(=O)c3ccccc3)C(OC(=O)c3ccccc3)C2OC(=O)c2ccccc2)oc1N` (stereo not given), the TGI in assay [1] is above 100 µM; in assay [2], above 100 µM; in assay [3] it was above 100 µM; in assay [4] it was 36.3 µM; in assay [5] it was above 100 µM; in assay [6], above 100 µM. Moreover, the TGI in assay [7] and in assay [8] was above 100 µM throughout.

Take `COC(=O)c1cc(Br)c(Br)n1C`: the TGI in assay [1], in assay [2], in assay [3], in assay [4], in assay [5] and in assay [7] was above 100 µM each time. Moreover, the TGI in assay [8] was above 100 µM.

On to `N.N.N.N.N.O=C([O-])c1nn[n-]n1.[Cl-].[Co+3]`, for which the GI50 in assay [1], in assay [2], in assay [3], in assay [4], in assay [5] and in assay [6] was above 100 µM throughout. The GI50 in assay [7] and in assay [8] was above 100 µM in each case. The TGI in assay [1], in assay [2], in assay [3], in assay [4], in assay [5] and in assay [6] was above 100 µM in each case. Further, the TGI in assay [7] and in assay [8] was above 100 µM each time.

For `CC1=C(C)CC2(CCCCC2=O)S(=O)C1` (stereo not given), the TGI in assay [1], in assay [2], in assay [3], in assay [4], in assay [5] and in assay [6] was above 100 µM in each case. In addition, the TGI in assay [7] and in assay [8] was above 100 µM each time.

For `Cc1ccc2nc3c(C(=O)NCCN(C)C)cccc3nc2c1`, the TGI is 12 µM in assay [1]; above 27.1 µM in assay [2]; 29.8 µM in assay [3]; above 100 µM in assay [4]; 15.2 µM in assay [5]; above 42.2 µM in assay [7]. The compound also had a TGI in assay [8] of 32.3 µM.

Take `Cc1ccc(N(C(=O)CC(=O)NN)C(=O)c2ccccc2Cl)cc1`: the TGI in assay [1], in assay [2], in assay [3], in assay [4], in assay [5] and in assay [6] was above 100 µM each time. The TGI in assay [7] and in assay [8] was above 100 µM throughout.

For `Cc1ccc(S(=O)(=O)n2c(-c3ccccc3)c(-c3ccccc3)c3ccccc32)cc1`, the TGI in assay [1], in assay [2], in assay [3], in assay [4], in assay [5] and in assay [6] was above 100 µM in each case. The TGI in assay [7] and in assay [8] was above 100 µM in each case.

As to `CC1=C2C(=O)O[C@@H](c3ccoc3)[C@]2(C)CCC1`, the TGI in assay [1], in assay [2], in assay [3], in assay [4], in assay [5] and in assay [6] was above 100 µM throughout. The TGI in assay [7] and in assay [8] was above 100 µM each time.

As for `CC(C)(C)OC(=O)Cc1ccc2c(ccn2Cc2ccccc2)c1`, the TGI in assay [1], in assay [2], in assay [3], in assay [4], in assay [5] and in assay [6] was above 100 µM throughout. For the same compound, the TGI in assay [7] and in assay [8] was above 100 µM throughout.

Regarding `CC(O)C(NC(=O)C(Cc1ccccc1)NC(=O)C(NC(=O)C(CCCCN)NC(=O)C(Cc1c[nH]c2ccccc12)NC(=O)C(Cc1ccc(O)cc1)NC(=O)C(Cc1ccc(Cl)cc1)NC(=O)C(N)Cc1ccccc1)C(C)O)C(N)=O` (stereo not given) (H-F[Phe(4-Cl)]YWKTFT-NH2; configuration not given here), the TGI came out at 49 µM in assay [1]; 21.3 µM in assay [2]; 28.6 µM in assay [4]; 58.7 µM in assay [5]; 32.5 µM in assay [6]; 67.5 µM in assay [7]. Further, in assay [8], the TGI was determined as 73.7 µM.

Regarding `NC1=NN(c2ccccc2)C(=O)C1C(=O)CCC(=O)Nc1cccc(C(F)(F)F)c1` (stereo not given), the TGI in assay [1], in assay [2], in assay [3], in assay [4], in assay [5] and in assay [6] was above 100 µM in each case. The TGI in assay [7] and in assay [8] was above 100 µM each time.

Turning to `CCOC(=O)CN=c1nc(SC)sc2c(C(=O)OCC)nc(Sc3ccccc3)n12`, the TGI in assay [1], in assay [3], in assay [4], in assay [5], in assay [7] and in assay [8] was above 100 µM each time.

`CCOC1=NC(=O)CC(c2ccccc2)S1` (stereo not given): the TGI in assay [1], in assay [2], in assay [3], in assay [4], in assay [5] and in assay [6] was above 100 µM each time. Besides, the TGI in assay [7] and in assay [8] was above 100 µM in each case.

Take `Cc1cccc(NC(=O)C(=O)Cc2nc3ccccc3[nH]c2=O)c1C`: the TGI in assay [1], in assay [2], in assay [3], in assay [4], in assay [5] and in assay [6] was above 100 µM in each case. Further, the TGI in assay [7] and in assay [8] was above 100 µM in each case.

With `O=C(O)CN(c1ccccc1)S(=O)(=O)c1ccccc1[N+](=O)[O-]`, the TGI in assay [2], in assay [3], in assay [4], in assay [5], in assay [6] and in assay [7] was above 100 µM each time.

In the case of `Cn1cc(C(=O)c2ccccc2)ccc1=O`, the TGI in assay [1], in assay [2], in assay [3], in assay [4], in assay [5] and in assay [6] was above 100 µM each time. Also, the TGI in assay [7] and in assay [8] was above 100 µM in each case.

On to `O=c1cccccc1NCCCNc1cccccc1=O`, for which the TGI in assay [1], in assay [2], in assay [3], in assay [4], in assay [6] and in assay [7] was above 100 µM in each case.

For the compound `CCOC(=O)NC(=O)c1cn(CCOCCOC(=O)NCCCCCCNC(=O)OCCOCCn2cc(C(=O)NC(=O)OCC)c(=O)[nH]c2=O)c(=O)[nH]c1=O`, the TGI in assay [1], in assay [2], in assay [3], in assay [4], in assay [5] and in assay [6] was above 100 µM throughout. The TGI in assay [7] and in assay [8] was above 100 µM each time.

With `CCCCCCCCCCCCCC1CCC(CC)N1` (stereo not given), the TGI in assay [1] amounted to 29.6 µM; in assay [2] it was 32.6 µM; in assay [3], 30.3 µM; in assay [4] it was 21.2 µM; in assay [5], 31.2 µM; in assay [6], 18.5 µM. Moreover, the TGI in assay [7] was found to be 39.1 µM; in assay [8] it was 18.7 µM.

In the case of `Cc1cc(C)nc(NS(=O)(=O)c2ccc(Nc3c4ccccc4nc4c(C(=O)Nc5ccc(S(=O)(=O)Nc6cc(C)on6)cc5)cccc34)cc2)n1`, the TGI in assay [1] is 31.2 µM; in assay [2], 63.1 µM; in assay [3], 59 µM; in assay [4], 61.4 µM; in assay [5] it was 65.5 µM; in assay [6] it was 61 µM. Further, the TGI amounted to 39.3 µM in assay [7] and 30.9 µM in assay [8].

For `Cc1ccccc1N(CCC#N)C1=NN(C(=O)CC(=O)Nc2ccccc2)C(c2ccccc2)C1` (stereo not given), the TGI in assay [1], in assay [2], in assay [3], in assay [4], in assay [5] and in assay [6] was above 100 µM each time. Also, the TGI in assay [7] and in assay [8] was above 100 µM throughout.

Regarding `COC(=O)C1=NC(=S)NC(c2ccccc2)C1c1nc2ccccc2s1` (stereo not given), the TGI in assay [1], in assay [2], in assay [4], in assay [5], in assay [6] and in assay [7] was above 100 µM throughout. In assay [8], the TGI was above 100 µM.

For the compound `COc1ccc2c(c1)CCC1C3(CCCC21C)OCCO3` (stereo not given), the TGI is 30.5 µM in assay [1]; 40.8 µM in assay [2]; above 100 µM in assay [3]; 43.2 µM in assay [4]; above 100 µM in assay [5]; 46.3 µM in assay [6]. Further, the TGI came to 50.4 µM in assay [7] and 44.3 µM in assay [8].

For the compound `Cc1ccc(Nc2nc3c(s2)C(=O)c2ccccc2C3=O)c(C)c1`, the TGI in assay [2] worked out at 29.4 µM; in assay [3] it was 34.8 µM; in assay [4], 6.02 µM; in assay [5], 25 µM; in assay [6], 54.2 µM; in assay [7] it was 35.2 µM. In assay [8], this compound came in with a TGI of 31.8 µM.
